The values that follow come from BindingDB's records for doi:10.1021/jm058276a (Duquesne University, 2006).

For the assay, the target named is T1, Dihydrofolate reductase (Homo sapiens, UniProt P00374).
T1 sequence (P00374 whole entry): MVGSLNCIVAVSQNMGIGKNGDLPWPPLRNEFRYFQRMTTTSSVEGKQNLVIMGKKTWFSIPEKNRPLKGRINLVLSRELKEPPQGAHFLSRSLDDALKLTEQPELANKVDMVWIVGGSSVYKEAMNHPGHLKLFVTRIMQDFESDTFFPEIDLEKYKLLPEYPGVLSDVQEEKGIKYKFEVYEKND
The assay can be described thus: Dihydrofolate Reductase (DHFR) Assay. To be noted: pH 7.4; 30 °C. As for the experimental part: DHFRs were assayed spectrophotometrically in the reaction buffer solution containing dihydrofolate. The reaction was initiated with an amount of enzyme yielding a change in optical density at 340 nm of 0.015/min.
The IC50 is the concentration needed to halve the response being measured. High values mean a need for much substance, low ones inhibition by little substance. Consider `CCc1[nH]c2nc(N)[nH]c(=O)c2c1Sc1c(C)cccc1C` [2-amino-5-[(2,6-dimethylphenyl)sulfanyl]-6-ethyl-3H,4H,7H-pyrrolo[2,3-d]pyrimidin-4-one], for which the half-maximal inhibitory concentration (IC50) was greater than 31 µM.

Consider `CCc1[nH]c2nc(N)[nH]c(=O)c2c1Sc1ccc(Cl)c(Cl)c1` [2-amino-5-[(3,4-dichlorophenyl)sulfanyl]-6-ethyl-3H,4H,7H-pyrrolo[2,3-d]pyrimidin-4-one], for which the half-maximal inhibitory concentration (IC50) is greater than 27 µM.

Regarding `CCc1[nH]c2nc(N)nc(O)c2c1Sc1cccc(Br)c1` [2-amino-5-[(3-bromophenyl)sulfanyl]-6-ethyl-3H,4H,7H-pyrrolo[2,3-d]pyrimidin-4-one], the IC50 was greater than 27 µM.

On to `CCc1[nH]c2nc(N)nc(O)c2c1Sc1cccc(Cl)c1` [2-amino-5-[(3-chlorophenyl)sulfanyl]-6-ethyl-3H,4H,7H-pyrrolo[2,3-d]pyrimidin-4-one], for which the IC50 was greater than 31 µM.

The compound `CCc1[nH]c2nc(N)nc(O)c2c1Sc1ccc(Br)cc1` [2-amino-5-[(4-bromophenyl)sulfanyl]-6-ethyl-3H,4H,7H-pyrrolo[2,3-d]pyrimidin-4-one] gave an IC50 greater than 26 µM.

The compound `CCc1[nH]c2nc(N)[nH]c(=O)c2c1Sc1cc(C(F)(F)F)cc(C(F)(F)F)c1` [2-amino-5-{[3,5-bis(trifluoromethyl)phenyl]sulfanyl}-6-ethyl-3H,4H,7H-pyrrolo[2,3-d]pyrimidin-4-one] registered an IC50 greater than 24 µM.

With `CCc1[nH]c2nc(N)nc(O)c2c1Sc1ccc(F)cc1` [2-amino-6-ethyl-5-[(4-fluorophenyl)sulfanyl]-3H,4H,7H-pyrrolo[2,3-d]pyrimidin-4-one], the IC50 was greater than 32 µM.

For `CCc1[nH]c2nc(N)nc(O)c2c1Sc1ccc([N+](=O)[O-])cc1` [2-amino-6-ethyl-5-[(4-nitrophenyl)sulfanyl]-3H,4H,7H-pyrrolo[2,3-d]pyrimidin-4-one], the IC50 was greater than 29 µM.
